Assay results reported in patent US8309356B2, “Pseudocomplementary oligonucleotides for targeted gene therapy” (Yale University, priority 2009, dated 2012).

Experiments:
[1] = tested on: supF reporter gene; assay: Induced recombination / gene correction of supF reporter gene in SV40-based shuttle vector transfected into COS cells, scored in indicator bacteria; type: cell-based, monkey; conditions: plasmid co-mixed with binding molecule and supF1-donor DNA, two days
Text: In this assay, each targeting oligomer was designed, including the pair of pcPNAs, the TFO (AG30) and the bis-PNA (bis-PNA5), to bind to a selected site in the supF reporter gene contained in an SV40-based shuttle vector. In this vector construct, the supF gene has an inactivating single base pair mutation which can be corrected by recombination with a short single stranded oligonucleotide donor. The pcPNAs were designed to bind to a mixed sequence site 62 by away from the mutation, whereas the TFO and the bis-PNA were targeted to a G:C by rich polypurine site 24 by away from the mutation. The plasmid vector DNA was co-mixed with selected molecules, and the samples were transfected into monkey COS cells. Two days were allowed for repair/recombination/replication, and the episomal vector DNA was harvested for genetic analysis of the supF gene in indicator bacteria, as previously described (by Chan, et al., J. Biol. Chem., 274:11541-11548 (1999)). As expected, and consistent with other published work, the TFO (AG30) and the bis-PNAS induced gene correction in the supF gene at frequencies of 0.14% and 0.21%, respectively (FIG. 4). […] A pair of control pcPNAs (pcPNA3 and pcPNA4) with 5 mismatches each to the supF target site were ineffective, showing the sequence specificity of the process.

[2] = tested on: chromosomal GFP/IVS2-1^G→A gene; assay: Gene correction of chromosomal GFP/IVS2-1G→A fusion gene in CHO reporter cells, GFP-positive cells quantified by FACS; type: cell-based; conditions: with β-globin/GFP donor DNA (or donor alone)
Experimental: The HinDIII-NotI fragments of these plasmids, containing the GFP sequence interrupted by IVS2-1 or IVS2 wt construct, were subcloned into the multiple cloning site of pcDNA5/FRT (Invitrogen, Carlsbad, Calif.), and the resulting vectors were stably transfected into CHO-Flp host cell lines using the Flp-In System according to manufacturer's instructions (Invitrogen, Carlsbad Calif.). […] The resulting CHO-GFP/IVS2-1^G→A cells and control CHO-GFP/IVS2-1^WT cells were grown in Ham's F12 media supplemented with 10% FBS and 2 mM L-glutamine.
1×10^6 cells in 100 μl of media were mixed with selected pcPNAs (6 μM) and GFP-DNA (12 μM) oligonucleotides and electroporated in 0.4 cm cuvettes using a Bio-Rad Gene Pulser (280V, […], Hercules, Calif.). Cells were replated in 60 mm dishes following electroporation and allowed to expand to approximately 90% confluency (2-3 days). […] Two days later as indicated, cells were then visualized via fluorescence microscopy or analyzed by FACS.
Cells were visualized using a Zeiss Axiovert 200 (Thornwood, N.Y.) fluorescent microscope at 100× and 200× magnification. […] Cells were analyzed using a Becton Dickinson FACS-Calibur flow cytometer (Franklin Lakes, N.J.). […] Collected data were then analyzed using the FlowJo software (Tree Star Inc., Ashland, Oreg.). […]

| Substance | Frequency of gene correction in the supF gene (recombination frequency) [1] [%] | Frequency of gene correction ([2]; S-phase synchronized cells, SAHA, single treatment) [%] | Frequency of gene correction ([2]; asynchronous CHO-GFP/IVS2-1G→A cells, single electroporation, no additive) [%] |
| --- | --- | --- | --- |
| AGGAAGGGGGGGGTGGTGGGGGAGGGGGAG (chemistry not given here) [AG30] | 0.14 |  |  |
| GTTCAGCGTGTCCGGCGAGGGCGAGGTGAGTCTATGGGACCCTTGATGTTT (listed as DNA, chemistry not given here) [GFP-donor DNA] |  | 0.29 | 0.005 |
| JJJJJTTJJT-O-O-O-TCCTTCCCCC-(Lys)3 (JJJJJTTJJT-O-O-O-TCCTTCCCCC-(Lys)_{3}; as printed in the source, key not given here) [Bis-PNA5] | 0.21 |  |  |
